Patent US10233463B2, “Neurotensin-induced tumor formation is regulated by micro RNA 133A-aftiphilin-dependent receptor recycling” (THE REGENTS OF THE UNIVERSITY OF CALIFORNIA, priority 2013, dated 2019)

Tests used:
[1] = test system: NCM460-NTR1 cells; test: NTR1 localization and recycling by immunofluorescence; assay type: cell-based, human; conditions: 10 nM Brefeldin A during recovery
Description: Immunofluorescence. NCM460-NTR1 cells were transfected with antisense miR-133α (as-miR-133α) (Ambion) and its control using siPORTNeoFX transfection reagent (Applied Biosystems) or siRNA against AFTPH and its control (Santa Cruz) using Lipofectamine™ RNAiMAX (Invitrogen) where appropriate. […] Cells were fixed in PBS containing 4% (w/v) paraformeldehyde (pH 7.4, 20 min, 4° C.) and blocked in PBS containing 3% bovine serum and 0.1% Triton X. Cells were incubated (16 h, 4° C.) with the following antibodies (Santa Cruz): goat anti-NTR1 (1:100), goat anti-AFTPH (1:100) and rabbit anti-TGN38 (1:100). Cells were washed and incubated (2 h, room temperature) with bovine anti-goat IgG or bovine-anti-rabbit IgG conjugated to FITC or Texas Red (Santa Cruz, 1:500). […]
Image analysis protocol. Substacks of five optical sections were generated per image and were analyzed using Images J with MacBiophotonics plugins. […] Mean fluorescence intensity was measured for these two regions, representing the intracellular and cell surface associated NTR1 labeling, respectively. The relative surface and intracellular values were expressed as a ratio. […] Only cells with a defined nucleus were analyzed and only within cell comparisons were made. […]

[2] = test system: SW480 cells; test: Anchorage-independent growth assay with Brefeldin A in the presence of NT; assay type: cell-based, human
Description: Anchorage-independent growth assays. […] HCT-116 and SW480 cells were transfected with miR-133α or si-AFTPH 2 days prior to the assay. In addition, SW480 cells were treated with 2.5, 5, 10 μg/ml brefeldin A in the presence of 100 nM NT. Triplicates of 5,000 cells were suspended in complete growth media supplemented with 0.4% agarose [mixing 2% agarose with complete growth media in 1:4 (v/v)). Cell mixtures were layered on 0.8% agarose and fed with complete growth media supplemented with 0.4% agarose every 6-7 days. The number of colonies was counted after 15 days. Experiments were repeated 3 times. Statistical significance was calculated using the Student's t-Test.

Compound: C[C@H]1CCC/C=C/[C@@H]2C[C@H](O)C[C@H]2[C@H](O)/C=C/C(=O)O1 [Brefeldin A]
- membrane-associated NTR1 vs total cellular receptors ([1]; 3 h after NT stimulation): 57.0±2.95%
- membrane-associated NTR1 vs total cellular receptors ([1]; 6 h after NT stimulation): 52.1±2.89%
- SW480 cell growth (colony formation) ([2]; 2.5, 5, 10 μg/ml): inhibited
- reduction of NT-induced tumor colony formation ([2]; NT 100 nM): 44.1±1.1%
